The structures appear in SMILES notation. Values joined by “and” are separate entries in the source; they are usually repeats but may differ in a detail not shown here. Equal values may be shown once.

In assay [1] the test system is isolated guinea-pig heart. Briefly: Perfused isolated guinea-pig heart (Langendorff), injections of the substances. Particulars: injection of substance 10^−6M. From the text:
As an example of a biological control system, an d referring to FIG. 2, a test will be described below derived from that known under the test name of a perfused isolated guinea-pig heart (or Langendorff experiment) and whose process is described in the work entitled: “Methods in Immunology and Immunochemistry” published by Williams and Chase, Academic Press 1976, particularly page 68; or further in the work entitled: “L'experimentation animate en cardiologie” INSERM Médecine-Science—Coll. Flammarion—Author Bernard […]—particularly Ch. 3.1 p.81 “Organe Isolé—Coceur Isolé selon Langendorff—Montage à pression coronaire constante”; or further in the work entitled “The isolated perfused Heart according to Langendorff” H. J. Döiring, H. Dehnart—Biomesstechnik—Verlag March GmbH, D-7806 March. In FIG. 2 one recognises the diagram known from the Langendorff experiment. The equipment described in these works has been completed by a transducer in the form of a bobbin 60 of a varnished copper wire of diameter 0.5 mm, with a diameter of 110 mm, a length of 40 mm and with an impedance of 4 ohms.
The fraction collector collected the tubes making it possible to measure the debit of the guinea-pig heart at the rate of 1 tube per minute. The buffer solution crossing the heart had the following composition: CaCl 2 mM, NaHCO3 25 mM, NaCl 118 mM, MgSO4 1.2 mM, KHPO4 1.2 mM, Glucose 11 mM, Pyruvate 2 mM.

The next assay concerns skin of a guinea-pig. Briefly: Guinea-pig cutaneous test (Evans blue marks). The note with it: 0.1 ml ponderal solution at 10^−6M injected under the skin; single injections. The class given is in vivo. From the text:
As an example, with reference to FIG. 4, a presentation is given below of the test known under the name of guinea-pig cutaneous test and described in chapter 11 (p.346-351) in the second edition of “Immunology” edited by Jean-Francois Bach, coll. John Wiley & Sons; or further in the 3rd edition of “The handbook of Experimental Immunology” edited by D. M. Weir, coll. Blackwell, Ch. 21 “Passive cutaneous anaphylaxis (PCA)” by W. E. Brocklehurst; or further in the work edited by Williams & Chase entitled “Methods in IMMUNOLOGY and IMMUNOCHEMISTRY”—Vol. 5—Ch. 19 “Anaphylaxis”.
The guinea-pig is used when still alive, and is given a n intravenous injection of a blue colorant (Evans blue—Sigma E 2129) which fixes on the blood albumin.
The test is carried out by injecting under the skin of the animal prepared in this way, 0.1 ml of the solution whose activity is to be controlled. Nextone measures the diameter of the blue marks appearing around the points of injection. In order to do this the skin is scanned, and then the bitmap image file is recorded. Finally the sizes of the blue marks due to the reaction are evaluated.
In the example described, a control was carried out of the presence of signals characteristic of the biological activity of the acetylcholine neuromediator (ACh; Sigma A2661) in solution in a physiological solution, by analysing the effects o n the skin of a guinea-pig: […]

Consider `Cn1c(=O)c2c(ncn2C)n(C)c1=O` [caffeine], for which the “quantity of the buffer solution recuperated in the collector tubes” value (shortened to “quantity”) in assay [1] (time 1 min) was found to be 5.1 mL; in assay [1] (time 2 min), 5.0 mL; in assay [1] (time 3 min), 5.0 mL; in assay [1] (time 4 min), 4.9 mL; in assay [1] (time 5 min), 4.6 mL; in assay [1] (time 6 min) it was 4.2 mL. Further, the “quantity” value in assay [1] (time 7 min) worked out at 4.0 mL; in assay [1] (time 8 min), 4.1 mL; in assay [1] (time 9 min), 4.0 mL; in assay [1] (time 10 min), 4.2 mL; in assay [1] (time 11 min), 4.1 mL; in assay [1] (time 12 min) it was 4.3 mL. In addition, the “quantity” value in assay [1] (time 13 min) amounted to 4.4 mL; in assay [1] (time 14 min), 4.5 mL; in assay [1] (time 15 min) it was 4.5 mL; in assay [1] (time 20 min), 4.6 mL; in assay [1] (time 25 min) it was 4.5 mL; in assay [1] (time 30 min), 4.5 mL.

`CC(=O)OCC[N+](C)(C)C` [ACh, acetylcholine]: the “Dia. in mm (diameter of the blue marks around the points of injection)” value with skin of a guinea-pig was 23 mm and 25 mm and 21 mm and 18 mm.

In the case of `CNc1ccc2oc(C[C@H]3O[C@@]4(CC[C@H]3C)O[C@H]([C@H](C)C(=O)c3ccc[nH]3)[C@H](C)C[C@H]4C)nc2c1C(=O)O` [ionophoretic-calcium, ionophoretic-calcium A 23187], the “quantity” value in assay [1] (time 1 min) came out at 5.1 mL; in assay [1] (time 2 min), 5.0 mL; in assay [1] (time 3 min), 5.2 mL; in assay [1] (time 4 min) it was 5.0 mL; in assay [1] (time 5 min), 4.9 mL; in assay [1] (time 6 min), 5.4 mL. In addition, the “quantity” value in assay [1] (time 7 min) was determined as 5.6 mL; in assay [1] (time 8 min) it was 6.2 mL; in assay [1] (time 9 min), 6.4 mL; in assay [1] (time 10 min), 6.4 mL; in assay [1] (time 11 min), 6.2 mL; in assay [1] (time 12 min), 6.0 mL. The “quantity” value in assay [1] (time 13 min) is 6.0 mL; in assay [1] (time 14 min) it was 5.9 mL; in assay [1] (time 15 min) it was 6.0 mL; in assay [1] (time 20 min), 5.7 mL; in assay [1] (time 25 min), 5.4 mL; in assay [1] (time 30 min), 5.2 mL.

Source of the values: patent publication US6541978B1, “Method, system and device for producing signals from a substance biological and/or chemical activity” (priority 1998, dated 2003).
